Literature values as cited in US20240398684A1, “HIGH UV PROTECTION CLEANSING COMPOSITION” (Conopco, Inc., d/b/a UNILEVER, priority 2020, published 2024).

Conditions: Reference: Photochem. Photobiol. Sci., 2010,9, 464-469

SMILES	absorption maxima [nm]
O=S(=O)([O-])c1cc(S(=O)(=O)O)cc2[nH]c(-c3ccc(-c4nc5c(S(=O)(=O)[O-])cc(S(=O)(=O)O)cc5[nH]4)cc3)nc12.[Na+].[Na+] [BD, Di sodium phenyl dibenzimidazole tetra sulfonate]	335
O=S(=O)(O)c1ccc2[nH]c(-c3ccccc3)nc2c1 [PBSA, Phenyl benzimidazole sulphonic acid]	302
CC1(C)C2CCC1(CS(=O)(=O)O)C(=O)C2=Cc1ccc(C=C2C(=O)C3(CS(=O)(=O)O)CCC2C3(C)C)cc1 [TDSA, Terephthalylidene dicamphor sulfonic acid]	345
